These results are taken from patent US11267859B2, “GM-CSF mimetics and methods of making and using same” (The Regents of the University of Colorado, a body corporate, priority 2017, dated 2022).

In test [1] the test system is TF-1 cells. The experiment in a line: ATPlite viability assay of GM-CSF-dependent TF-1 cells grown without GM-CSF. The test is classed as cell-based, human. The conditions noted are these: for activity as a GM-CSF mimetic/agonist: summary statement citing FIGS. 1A-1B, FIGS. 2A-2C; for GM-CSF receptor agonist activity (cell viability, ATPlite): TF-1 cells without GM-CSF, 1 nM, 10 nM or 50 nM. How it is done:
FIGS. 1A-1B comprise bar graphs illustrating use of the ATPlite assay to examine the viability of the GM-CSF-dependent human erythroleukemic cell line TF-1 (Hansen, et al., 2008, Cell 134(3):496-507) treated with GM-CSF mimetics of the invention (M1, M5, or M6; 1 nM, 10, nM, or 50 nM). TF-1 cells grown in the absence of GM-CSF (control) served as a negative control, and TF-1 cells grown in the presence of GM-CSF (GM-CSF; 0.7 nM) served as a positive control. […] Error bars represent standard error of the mean. *** indicates P<0.0001, * indicates P≤0.03, compared to control.
In order to determine whether a synthetic fragment of GM-CSF or a construct comprising a combination of GM-CSF fragments linked together using PEG linkers is an agonist of the GM-CSF receptor, human cell lines dependent on GM-CSF for proliferation were employed: specifically, the human hematopoietic cell line TF-1 (Hansen, et al., 2008, Cell 134(3): 496-507) and the human cell line MOTE (Monfardini, et al., 2002, Curr Pharm Des 8(24):2185-2199) (both obtained from American Type Culture Collection, or ATCC).
In experiments with the TF-1 cell line, it was determined whether the GM-CSF mimetics of the invention were sufficient to support cell growth and viability in the absence of GM-CSF. Specifically, the cells were grown in medium without GM-CSF (control) as a negative control, in medium supplemented with GM-CSF (GM-CSF; 0.7 nM) as a positive control, or in medium supplemented with one of the GM-CSF mimetics of the invention (i.e., M1, M5, or M6; 1 nM, 10 nM, or 50 nM; FIGS. 1A-1B). Cell viability was measured using the ATPlite assay (PerkinElmer) to determine whether the GM-CSF mimetics of the invention were capable of maintaining the viability of TF-1 cells, which require GM-CSF, thus providing a measure of agonist activity.

For test [2], the system named is transgenic mice that express the human GM-CSF receptor (hGMR mice). Kind of test: Blood neutrophil response in transgenic hGMR mice after subcutaneous injection for three days. To be noted: s.c.; for percentage of neutrophils at 72 h versus 0 h (paired T-test): three days, P<0.0019 for GM-CSF, P<0.0052 for M6. It counts as in vivo, mouse. On the procedure: FIGS. 3A-3B comprise a plot illustrating % change in neutrophil levels in blood from transgenic hGMR mice (Nishijima, et al., 1995, Mol. Biol. Cell 6(5):497-508) treated with saline (3 days) as a negative control, with human GM-CSF (hGM-CSF, 5 μg/day×3 days) as a positive control, with the GM-CSF mimetic M1 (M1 5 μg/day×3 days), or with the GM-CSF mimetic M6 (M6, 5 μg/day×3 days) (FIG. 3A). Each connected symbol represents an individual hGMR mouse pre- and post-treatment (0 h and 72 h, respectively). Error bars represent standard error of the mean. […] To determine whether the PEG-based GM-CSF mimetics of the invention are active in vivo, the GM-CSF mimetic molecules M1 and M6 were tested in transgenic mice that express the human GM-CSF receptor and are responsive to human GM-CSF, referred to herein as hGMR mice (Nishijima, et al., 1995, Mol. Biol. Cell 6(5):497-508). The hGMR mice were tested for their responses to M1 or M6. Specifically, the study included four groups of mice: (1) hGMR mice injected subcutaneously with saline (n=4 mice) as a negative control (Saline); (2) hGMR mice injected subcutaneously with commercial human GM-CSF ([…]; n=13 mice) as a positive control, because these mice should respond to human GM-CSF; (3) hGMR mice injected subcutaneously with M1 (5 μg/animal/day; n=5 mice); and (4) hGMR mice injected subcutaneously with M6 (5 μg/animal/day; n=6 mice) for three days. Blood samples were collected before the mice received any injections of saline, human GM-CSF, M1, or M6, and blood samples were also collected after the three days of injections. The percentage of neutrophils present in the blood post-treatment was measured by counting from whole blood smears. FIG. 3A illustrates trends in the percentages of neutrophils in individual mice from each of the four groups; each connected symbol represents an individual hGMR mouse pre- and post-treatment (0 h and 72 h, respectively). FIG. 3B compares the changes in the percentage of neutrophils over the course of the treatment for each of the four groups.

For test [3], the system named is TF-1 cells. Kind of test: Live cell counts of GM-CSF-starved TF-1 cells by flow cytometry (DAPI). The test is classed as cell-based, human. The conditions noted are these: TF-1 starved of GM-CSF 24 h, FIG. 2A. On the procedure:
FIGS. 2A-2C illustrate results of experiments wherein the GM-CSF-dependent human erythroleukemic cell line TF-1 was starved of GM-CSF for 24 h prior to treatment with media containing GM-CSF, with medium containing a GM-CSF mimetic (M1, M5 or M6; 10 nM or 100 nM), or with control medium lacking GM-CSF. The cells were fed fresh medium each day to replenish indicated concentrations (10 nM or 100 nM). Live cell counts from 3-4 replicates were plotted for each of the different conditions in FIG. 2A. […] The plots were gated by front and side scatter for singlets, then gated by DAPI, wherein DAPI-positive cells were dead and DAPI-negative cells were alive, and front scatter for live cells indicated in the selected region with the cell numbers represented below the plots.
Evaluation of ability of the GM-CSF mimetics to support cell growth was carried out by measuring cell number and cell viability by flow cytometry. The TF-1 cell line was first starved of GM-CSF for 24 h, and then plated in various conditions. […] At 72 h post-treatment, the cells were treated with DAPI (1 μg/ml) to label the nuclei of dead cells and were analyzed on a Yeti cell analyzer from Propel Labs. […] Each dot represents an individual measured cell, and increased color by “heat map” indicates a large group of cells with overlapping DAPI and forward scatter area.

For “DFLLVIP (SEQ ID NO: 8) [Mimetic M2, human GM-CSF peptide fragment, aa 112-118 of mature GM-CSF]”, in the test on TF-1 cells [1], the “activity as a GM-CSF mimetic/agonist” value is “active as a GM-CSF mimetic/agonist”.
As for “GM-CSF: granulocyte-macrophage colony-stimulating factor; commercial human GM-CSF used as positive control”, in test [2], the “percentage of neutrophils at 72 h versus 0 h (paired T-test)” value is “statistically significantly higher at 72 h than at 0 h”.
Regarding “QPWEHVNAIQEAR (SEQ ID NO: 7) [Mimetic M1]”, in the test on TF-1 cells [3] (10 nM or 100 nM replenished daily, 72 h post-treatment), the “live cell counts versus negative control” value was “significant increase in the cell counts over the negative control”. In addition, the “GM-CSF receptor agonist activity (cell viability, ATPlite)” value in the test with TF-1 cells [1] (24 h post-treatment (FIG. 1A)) was “GM-CSF receptor agonist activity”; with TF-1 cells [1] (48 h post-treatment (FIG. 1B)), “the agonist effect is also replicated”. Besides, the “activity as a GM-CSF mimetic/agonist” value with TF-1 cells [1] is on record as “active as a GM-CSF mimetic/agonist”.
For the substance “QPWEHVNAIQEAR {PEG6} DFLLVIP {PEG6} DFLLVIP {PEG6} QPWEHVNAIQEAR [Mimetic M6]”, the “% change in neutrophils versus saline control group” value in test [2] (5 μg/animal/day for three days, student's T-test, P<0.046, FIG. 3B) was “statistically significantly higher than that for the saline control group”. In addition, the “percentage of neutrophils at 72 h versus 0 h (paired T-test)” value in test [2] is recorded as “statistically significantly higher at 72 h than at 0 h”. For the same substance, the “number of live cells versus control” value in the test on TF-1 cells [3] (100 nM replenished daily, P<0.042) is given as “significantly lower than control”. In addition, the “GM-CSF receptor agonist activity (cell viability, ATPlite)” value was “GM-CSF receptor agonist activity” in the test with TF-1 cells [1] (24 h post-treatment (FIG. 1A)) and “the agonist effect is also replicated” in the test on TF-1 cells [1] (48 h post-treatment (FIG. 1B)).
Regarding “QPWEHVNAIQEAR {PEG6} DFLLVIP {PEG6} QPWEHVNAIQEAR {PEG6} DFLLVIP [Mimetic M5]”, the figures for the “GM-CSF receptor agonist activity (cell viability, ATPlite)” value in the test with TF-1 cells [1] (24 h post-treatment (FIG. 1A)) and with TF-1 cells [1] (48 h post-treatment (FIG. 1B)) were “GM-CSF receptor agonist activity” and “the agonist effect is also replicated”, respectively.
